Data: PMC12668310, “High‐Throughput Synthesis and Screening of a Cyanimide Library Identifies Selective Inhibitors of ISG15‐Specific Protease mUSP18” (Angewandte Chemie (International Ed. in English), 2025)

target: T1, mUSP18 (Mus musculus, UniProt Q9WTV6); assay: High-throughput screening, ISG15ct-RhoMP, single dose 1.25 µM; type: biochemical, murine; settings: mUSP18 %inhibition; carboxylic acid (CA) building block alone; read-out: %inh CA only
T1 construct: (46-368); His-tag (N); made in house
T1 sequence (Q9WTV6 46-368): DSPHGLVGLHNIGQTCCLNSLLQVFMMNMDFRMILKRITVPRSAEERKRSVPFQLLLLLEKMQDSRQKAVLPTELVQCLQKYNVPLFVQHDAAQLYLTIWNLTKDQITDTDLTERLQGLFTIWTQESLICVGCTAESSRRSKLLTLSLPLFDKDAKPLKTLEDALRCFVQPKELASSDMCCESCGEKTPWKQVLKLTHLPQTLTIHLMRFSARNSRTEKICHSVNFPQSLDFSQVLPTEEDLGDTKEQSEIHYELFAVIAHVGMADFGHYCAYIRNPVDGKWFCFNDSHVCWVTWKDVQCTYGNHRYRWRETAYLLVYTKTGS

inhibition at 1.25 µM [%]	Structure (SMILES)
-0.76	O=C(O)C1CCN(C(=O)c2ccc(Cl)s2)CC1 [CA350]
4.42	O=C(O)c1ccc(Oc2cccc(Cl)c2)cn1 [CA351]
-4.1	CC1CN(c2ccc(C(=O)O)cn2)CC(C)O1 (stereo not drawn) [CA352]
14.4	O=C(O)c1csc(C2CCCCC2)n1 [CA353]
10.9	O=C(O)c1occc1-c1ccccc1 [CA354]
7.41	O=C(O)c1ccc(Cn2cccn2)s1 [CA355]
3.97	O=C(O)C1CC2CCC1O2 (stereo not drawn) [CA356]
4.64	O=C(O)c1ccc(-c2ccccn2)nc1 [CA357]
5.65	O=C(O)C1CC2C=CC1O2 (stereo not drawn) [CA358]
4.09	O=C(O)C1CC=CCC1C(=O)N1CCOCC1 (stereo not drawn) [CA359]
3.09	O=C(O)c1cccc(N2CCOCC2)n1 [CA360]
-2.66	O=C(O)c1cccc(Cn2cncn2)c1 [CA361]
6.21	O=C(O)c1cc(-n2cccc2)ccn1 [CA362]
4.39	O=C(O)c1ccc(Cn2ccnn2)o1 [CA363]
5.31	Cc1onc(C(=O)O)c1CN1CCOCC1 [CA364]
-1.04	O=C(O)C1CCN(S(=O)(=O)N2CCCCC2)CC1 [CA365]
0.85	CC1(C(=O)O)CCCCN1C(=O)OCc1ccccc1 (stereo not drawn) [CA366]
1.29	O=C(O)c1sccc1S(=O)(=O)NC1CCCCCC1 [CA367]
0.71	CCn1nccc1-c1cc(C(=O)O)no1 [CA368]
0.72	O=C(O)c1cccc(C(=O)N2CCCC2)n1 [CA369]

inhibition at 1.25 µM [%]	Structure (SMILES)
2.12	O=C(O)[1C@@H]1CCCO[1C@H]1c1ccccc1 [CA370]
1.66	O=C(O)C1CCCN(S(=O)(=O)c2cccs2)C1 (stereo not drawn) [CA371]
5.98	O=C(O)c1ccc(Cn2cc(Cl)c(C(F)(F)F)n2)o1 [CA372]
0.43	COc1ccc(C(=O)O)cc1S(=O)(=O)N(C)CCc1cccnc1 [CA373]
0.78	O=C(O)CC1CCN(c2ccc(C(F)(F)F)cn2)CC1 [CA374]
-1.76	O=C(O)c1cccnc1-n1cncn1 [CA375]
6.04	CCc1ccc(C(=O)N2CCC(C(=O)O)CC2)o1 [CA376]
2.74	O=C(O)c1cnn(-c2ccccc2)n1 [CA377]
1.59	Cc1nc(-c2ccsc2)ccc1C(=O)O [CA378]
-2.55	CN(C)S(=O)(=O)c1ccc(N2CCCCC2)c(C(=O)O)c1 [CA379]
-5.77	O=C(O)c1cnc(Cc2ccc(F)cc2)s1 [CA380]
1.09	Cc1cc(C)cc(N(CCC(=O)O)S(=O)(=O)c2ccc(Cl)cc2)c1 [CA381]
-3.25	O=C(O)c1csc(CCc2ccccc2)n1 [CA382]
-4.57	O=C(O)c1ccc(-c2nnco2)cc1 [CA383]
-2.51	O=C(O)c1ccccc1Cn1cncn1 [CA384]
-2.43	O=C(O)Cc1cnn(Cc2ccccc2)c1 [CA385]
-2.54	CN(CC1CC1)c1ccc(C(F)(F)F)cc1C(=O)O [CA386]
-2.91	CNS(=O)(=O)c1ccc(-c2ccc(Cl)c(Cl)c2)c(C(=O)O)c1 [CA387]
-10.4	O=C(O)Cc1csc(N2CCCC2=O)n1 [CA388]

same assay, conditions: mUSP18 %inhibition; carboxylic acid (CA) with coupling reagents DIC/HOBT; read-out: %inh CA + DIC/HOBT

inhibition at 1.25 µM [%]	Structure (SMILES)
4.42	O=C(O)C1CCN(C(=O)c2ccc(Cl)s2)CC1 [CA350]
14.8	O=C(O)c1ccc(Oc2cccc(Cl)c2)cn1 [CA351]
13.3	CC1CN(c2ccc(C(=O)O)cn2)CC(C)O1 (stereo not drawn) [CA352]
1.26	O=C(O)c1csc(C2CCCCC2)n1 [CA353]
-1.55	O=C(O)c1occc1-c1ccccc1 [CA354]
-1.93	O=C(O)c1ccc(Cn2cccn2)s1 [CA355]
-4.92	O=C(O)C1CC2CCC1O2 (stereo not drawn) [CA356]
-1.59	O=C(O)c1ccc(-c2ccccn2)nc1 [CA357]
-4.55	O=C(O)C1CC2C=CC1O2 (stereo not drawn) [CA358]
0.61	O=C(O)C1CC=CCC1C(=O)N1CCOCC1 (stereo not drawn) [CA359]
-0.29	O=C(O)c1cccc(N2CCOCC2)n1 [CA360]
0.1	O=C(O)c1cccc(Cn2cncn2)c1 [CA361]
0.7	O=C(O)c1cc(-n2cccc2)ccn1 [CA362]
-0.81	O=C(O)c1ccc(Cn2ccnn2)o1 [CA363]
1.01	Cc1onc(C(=O)O)c1CN1CCOCC1 [CA364]
2.17	O=C(O)C1CCN(S(=O)(=O)N2CCCCC2)CC1 [CA365]
3.29	CC1(C(=O)O)CCCCN1C(=O)OCc1ccccc1 (stereo not drawn) [CA366]
5.26	O=C(O)c1sccc1S(=O)(=O)NC1CCCCCC1 [CA367]
2.58	CCn1nccc1-c1cc(C(=O)O)no1 [CA368]
1.39	O=C(O)c1cccc(C(=O)N2CCCC2)n1 [CA369]

inhibition at 1.25 µM [%]	Structure (SMILES)
9.77	O=C(O)[1C@@H]1CCCO[1C@H]1c1ccccc1 [CA370]
2.42	O=C(O)C1CCCN(S(=O)(=O)c2cccs2)C1 (stereo not drawn) [CA371]
8.2	O=C(O)c1ccc(Cn2cc(Cl)c(C(F)(F)F)n2)o1 [CA372]
4.83	COc1ccc(C(=O)O)cc1S(=O)(=O)N(C)CCc1cccnc1 [CA373]
1.18	O=C(O)CC1CCN(c2ccc(C(F)(F)F)cn2)CC1 [CA374]
7.93	O=C(O)c1cccnc1-n1cncn1 [CA375]
-8.39	CCc1ccc(C(=O)N2CCC(C(=O)O)CC2)o1 [CA376]
-10.8	O=C(O)c1cnn(-c2ccccc2)n1 [CA377]
-10.4	Cc1nc(-c2ccsc2)ccc1C(=O)O [CA378]
-9.97	CN(C)S(=O)(=O)c1ccc(N2CCCCC2)c(C(=O)O)c1 [CA379]
-9.23	O=C(O)c1cnc(Cc2ccc(F)cc2)s1 [CA380]
-13.7	Cc1cc(C)cc(N(CCC(=O)O)S(=O)(=O)c2ccc(Cl)cc2)c1 [CA381]
-8.03	O=C(O)c1csc(CCc2ccccc2)n1 [CA382]
-8.55	O=C(O)c1ccc(-c2nnco2)cc1 [CA383]
-6.89	O=C(O)c1ccccc1Cn1cncn1 [CA384]
-10.4	O=C(O)Cc1cnn(Cc2ccccc2)c1 [CA385]
-7.62	CN(CC1CC1)c1ccc(C(F)(F)F)cc1C(=O)O [CA386]
-4.58	CNS(=O)(=O)c1ccc(-c2ccc(Cl)c(Cl)c2)c(C(=O)O)c1 [CA387]
-3.35	O=C(O)Cc1csc(N2CCCC2=O)n1 [CA388]
